# Test results reported in patent US20260158031A1, “AROMATIC HETEROCYCLIC COMPOUND, PHARMACEUTICAL COMPOSITION CONTAINING THE SAME, AND USE THEREOF” (HANG ZHOU YUHONG PHARMATECH CO., LTD., priority 2021, published 2026).
# Target: T1, JAK3 kinase (Homo sapiens, UniProt P52333)
# T1 sequence (P52333 1-1124): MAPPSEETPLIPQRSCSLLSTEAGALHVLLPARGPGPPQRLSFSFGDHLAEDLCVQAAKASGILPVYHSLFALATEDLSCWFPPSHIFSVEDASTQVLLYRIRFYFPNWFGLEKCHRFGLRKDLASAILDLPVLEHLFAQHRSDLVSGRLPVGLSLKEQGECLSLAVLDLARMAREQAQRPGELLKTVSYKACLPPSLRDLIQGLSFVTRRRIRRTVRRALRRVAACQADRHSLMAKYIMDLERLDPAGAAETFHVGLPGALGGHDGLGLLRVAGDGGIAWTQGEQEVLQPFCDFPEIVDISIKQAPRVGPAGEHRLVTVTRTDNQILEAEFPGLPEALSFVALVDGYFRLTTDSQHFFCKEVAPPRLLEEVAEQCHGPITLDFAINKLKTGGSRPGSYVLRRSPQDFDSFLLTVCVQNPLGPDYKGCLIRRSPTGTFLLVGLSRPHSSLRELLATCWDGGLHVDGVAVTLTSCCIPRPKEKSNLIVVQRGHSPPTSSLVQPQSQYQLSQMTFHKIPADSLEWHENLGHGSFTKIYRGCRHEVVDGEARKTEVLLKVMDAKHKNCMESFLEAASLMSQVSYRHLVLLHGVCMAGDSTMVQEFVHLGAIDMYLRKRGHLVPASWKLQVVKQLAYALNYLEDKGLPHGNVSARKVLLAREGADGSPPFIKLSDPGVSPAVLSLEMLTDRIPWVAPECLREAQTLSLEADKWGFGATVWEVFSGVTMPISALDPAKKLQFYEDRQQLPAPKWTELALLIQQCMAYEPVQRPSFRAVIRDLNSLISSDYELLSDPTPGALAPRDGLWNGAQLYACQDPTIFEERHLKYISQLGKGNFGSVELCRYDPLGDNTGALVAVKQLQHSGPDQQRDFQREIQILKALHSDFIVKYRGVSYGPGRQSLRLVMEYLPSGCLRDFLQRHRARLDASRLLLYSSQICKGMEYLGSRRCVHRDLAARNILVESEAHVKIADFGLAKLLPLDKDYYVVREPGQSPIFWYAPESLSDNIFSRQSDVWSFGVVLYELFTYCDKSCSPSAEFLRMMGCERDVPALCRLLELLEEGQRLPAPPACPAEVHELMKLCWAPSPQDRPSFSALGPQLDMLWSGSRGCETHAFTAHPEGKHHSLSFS
# Test: Mobility shift assay, in vitro JAK3 kinase inhibitory activity
# Format: biochemical
# Conditions: mobility shift assay, Example 136
# Method: A Mobility shift assay was adopted to detect compounds to be tested (see list below) for in vitro inhibitory activity on the enzyme activity of JAK3 kinase.
# The compound was dissolved in 100% DMSO to formulate a 10 mM stock solution, which was stored in a −20° C. refrigerator with protection from light.
# The compounds were diluted with gradients into solutions with a final concentration of 100 times in a 384-well plate. Then 250 nL was transferred to a 384 reaction plate with Echo550 for later use. 250 nL of 100% DMSO was added into the negative control well and the positive control well respectively. • (3) A kinase solution with a final concentration of 2.5 times was formulated with the 1× Kinase buffer. • (4) The compound wells and the positive control wells were added with 10 μL of the kinase solution with the final concentration of 2.5 times respectively; the negative control wells were added with 10 μL of the 1× Kinase buffer. • (5) The wells were centrifuged at 1,000 rpm for 30 seconds, mixed well by shaking, and then incubated at room temperature for 10 minutes. • (6) A mixed solution of ATP and Kinase substrate 22 with a final concentration of 25/15 times was formulated with a 1× Kinase buffer. • (7) The compound wells, positive control wells and negative control wells of the 384 reaction plate were respectively added with 15 μL of a mixed solution of ATP and the substrate at the final concentration of 25/15 times to start the reaction. • (8) The 384-well plate was centrifuged at 1,000 rpm for 30 seconds, mixed well by shaking, and then incubated at room temperature for 30 minutes. • (9) 30 μL of a detection termination solution was added to stop the kinase reaction, centrifuged at 1,000 rpm for 30 seconds, and mixed well by shaking. • (10) The conversion rate was read with Caliper EZ Reader.
# % Inhibition=(Conversion %_max−Conversion %_sample)/(Conversion %_max−Conversion %_min)×100 (1) Calculation Equation
# Among them: Conversion %_sample was the conversion rate reading of the sample; Conversion %_min was the mean value of the negative control wells, representing the conversion rate reading of the wells without enzyme activity; Conversion % max was the mean value of the positive control wells, representing the conversion rate reading of the wells without compound inhibition; and % Inhibition represented the percentage inhibition rate.
# • by taking the log value of concentration as the X axis and taking the percent inhibition rate as the Y axis, a dose-response curve is fitted by adopting the log (inhibitor) vs. response-Variable slope of the analysis software GraphPad Prism 5, so as to obtain the IC50 value of each compound on the enzyme activity. The calculation equation was Y=Bottom+ (Top−Bottom)/(1+10^((Log IC50−X)*HillSlope)).
row,Compound,IC50 [nM]
1,C[C@@H]1Cn2ncc(-c3ccnc4[nH]ccc34)c2CN1S(C)(=O)=O [YZ001011],> 10000
2,C[C@H]1Cn2ncc(-c3ccnc4[nH]ccc34)c2CN1C(=O)/C=C/CN(C)C [YZ001022],0.87
3,C=C(F)C(=O)N1Cc2c(-c3ccnc4[nH]ccc34)cnn2[C@@H]2CCCC[C@@H]21 [YZ001056],4.2
4,C=CC(=O)N1Cc2c(-c3ncnc4[nH]ccc34)cnn2[C@@H](C)C1 [YZ001026],0.43
5,C=CC(=O)N1Cc2c(-c3ncnc4[nH]ccc34)cnn2C[C@@H]1C(C)C [YZ001033],0.12
6,C=CC(=O)N1Cc2c(-c3ccnc4[nH]ccc34)cnn2[C@@H]2CCC[C@@H]21 [YZ001045],0.19
7,C=CC(=O)N1Cc2c(-c3ncnc4[nH]ccc34)cnn2C[C@@H]1C [YZ001024],0.15
8,C=CC(=O)N1Cc2c(-c3ncnc4[nH]ccc34)cnn2C[C@H]1C [YZ001018],0.48
9,C[C@H]1Cn2ncc(-c3ccnc4[nH]ccc34)c2CN1C(=O)/C=C/CN1CCCCC1 [YZ001023],0.58
10,C[C@H]1CN(C(=O)/C=C/CN(C)C)Cc2c(-c3ncnc4[nH]ccc34)cnn21 [YZ001027],7.8
11,C=CC(=O)N1Cc2c(-c3ccnc4[nH]ccc34)cnn2[C@@H]2CCCC[C@@H]21 [YZ001055],0.11
12,CN(C)C/C=C/C(=O)N1Cc2c(-c3ccnc4[nH]ccc34)cnn2[C@@H]2CCC[C@@H]21 [YZ001047],4.5
13,C[C@@H]1Cn2ncc(-c3ccnc4[nH]ccc34)c2CN1C(=O)CCl [YZ001013],8.1
14,C=C(F)C(=O)N1Cc2c(-c3ccnc4[nH]ccc34)cnn2[C@H](C)C1 [YZ001100],3.8
15,C=CC(=O)N1Cc2c(-c3ccnc4[nH]ccc34)cnn2C[C@H]1CCS(C)(=O)=O [YZ001074],0.57
16,C=CC(=O)N1Cc2c(-c3ncnc4[nH]ccc34)cnn2[C@H](C)C1 [YZ001028],0.19
17,C=CC(=O)N1Cc2c(-c3ccnc4[nH]cc(C(C)=O)c34)cnn2C[C@@H]1C [YZ001063],1.4
18,C=CC(=O)N1Cc2c(-c3ncnc4[nH]ccc34)cnn2C[C@H]1C(C)C [YZ001030],2.4

# Next, values leading:
row,IC50 [nM],Compound
1,0.2,C=CC(=O)N1Cc2c(-c3ccnc4[nH]ccc34)cnn2[C@H](C)C1 [YZ001099]
2,6.93,C=CC(=O)N1CCc2c(c(-c3ccnc4[nH]ccc34)nn2C(C)C)C1 [YZ001117]
3,7.1,C=C(F)C(=O)N1Cc2[nH]nc(-c3ccnc4[nH]ccc34)c2C1 [YZ001077]
4,5.1,C=CC(=O)N1Cc2c(-c3ccnc4[nH]ccc34)n[nH]c2[C@@H]1C [YZ001091]
5,0.14,C=CC(=O)N1CCn2ncc(-c3ccnc4[nH]ccc34)c2C1 [YZ001002]
6,1.5,C=CC(=O)N1Cc2c(-c3ccnc4[nH]ccc34)nn(C)c2C[C@H]1C [YZ001083]
7,0.29,[2H]C([2H])([2H])n1nc(-c2ccnc3[nH]ccc23)c2c1CCN(C(=O)C=C)C2 [YZ001103]
8,0.28,C=CC(=O)N1Cc2[nH]nc(-c3ccnc4[nH]ccc34)c2C1 [YZ001076]
9,1.4,C=CC(=O)N1CCCn2ncc(-c3ccnc4[nH]ccc34)c2C1 [YZ001093]
10,7,C=CC(=O)N1CCCCn2ncc(-c3ccnc4[nH]ccc34)c2C1 [YZ001095]
11,5.2,C=C(F)C(=O)N1CCc2c(c(-c3ccnc4[nH]ccc34)nn2C(C)=O)C1 [YZ001109]
12,0.31,C=CC(=O)N1Cc2c(-c3ccnc4[nH]ccc34)cnn2[C@H]2CCC[C@H]21 [YZ001057]
13,0.35,C=CC(=O)N1CCc2c(c(-c3ccnc4[nH]ccc34)nn2C(C)=O)C1 [YZ001108]
14,0.53,C=CC(=O)N1Cc2c(-c3ccnc4[nH]ccc34)nn(C(C)C)c2C[C@H]1C [YZ001085]

# System: not listed separately
# Test: In vivo exposure detection in SD rats (plasma, LC-MS/MS)
# Conditions: IG 20 mg/kg, average value
# Method: Preparation and processing of standard curves and quality control samples: the compound stock solution was taken and diluted with 50% methanol and water into standard working solutions containing respective compounds at concentrations of 20, 40, 100, 200, 400, 1,000, 2,000, 4,000, and 10,000 ng/mL respectively and quality control working solutions at concentrations of 60, 600 and 8,000 ng/mL respectively. Each 47.5 μL of blank rat plasma was taken and added with 2.50 μL of a standard curve working solution and a quality control working solution respectively to prepare standard curve samples containing respective compounds at concentrations of 1.00, 2.00, 5.00, 10.00, 20.00, 50.00, 100.00, 200.00 and 500.00 ng/mL and quality control samples with concentrations of 3.00, 30.00 and 400.00 ng/mL. The samples were respectively added with 200 μL of acetonitrile (containing 2 ng/mL of verapamil as an internal standard), vortexed with shaking for 3 min, and then centrifuged at 20,000 rcf and 4° C. for 10 min, and the supernatant was taken for LC-MS/MS analysis.
# Preparation and processing of plasma sample to be tested: 50 μL of the plasma sample was taken, added with 200 μL of acetonitrile (containing 2 ng/ml of verapamil as an internal standard), vortexed with shaking for 3 min, and then centrifuged at 20,000 rcf and 4° C. for 10 min, and […] for LC-MS/MS analysis.
AUClast_D [kg·ng·h/mL/mg],Cl_F_obs [L/h/kg],HL_Lambda_z [h],Vz_F_obs [L/kg],Compound
93.88,14.10842,1.4162,34.35946,C=C(F)C(=O)N1CCc2c(c(-c3ccnc4[nH]ccc34)nn2C)C1 [YZ001054]

# Same assay, conditions: Sprague-Dawley (SD), rat, po, IG 20 mg/kg, average value
AUC(0-t) [µg·h/mL],Cmax [µg/mL],Tmax [h],Compound
1.88,1.36,4.5,C=C(F)C(=O)N1CCc2c(c(-c3ccnc4[nH]ccc34)nn2C)C1 [YZ001054]

# Same assay, conditions: Sprague-Dawley (SD), rat, po, IG 20 mg/kg, average value, read-out: AUCINF_obs
row,AUC(0-inf) [µg·h/mL],Compound
1,1.9,C=C(F)C(=O)N1CCc2c(c(-c3ccnc4[nH]ccc34)nn2C)C1 [YZ001054]

# Same assay, conditions: Sprague-Dawley (SD), rat, po, IG 20 mg/kg, average value, read-out: MRTINF_obs
row,MRT inf [h],Compound
1,1.95,C=C(F)C(=O)N1CCc2c(c(-c3ccnc4[nH]ccc34)nn2C)C1 [YZ001054]

# System: SRBC mouse model
# Test: SRBC-induced delayed type hypersensitivity (DTH) in mice
# Format: in vivo
# Conditions: male Balb/c mice, 100 mg/kg by gavage once a day, day 0 to day 6, FIG. 1
# Method: PF-06651600 was used as a positive control compound.
# Drug preparation: the compound was weighed and added with a 0.5% CMC-Na solution to prepare a drug suspension (with an administration dose of 10 mg/mL).
# Induction of delayed type hypersensitivity (DTH) and administration: 30 male Balb/c mice were weighed and randomly divided into 6 groups according to body weight, with 5 mice in each group. The experimental period lasted for 7 days in total. On day 0, the mice were subcutaneously injected with sheep red blood cells (SRBCs) for sensitization. From day 0, the mice were administrated with 100 mg/kg by gavage (once a day) until day 6. On day 6, SRBCs were injected into the right hind foot pad of the mice for excitation. On day 7 of the experiment, measurements were conducted, photographs were taken, and the experiment was ended.
# Pharmacodynamic detection indicators of disease models: the detection and observation indicators were the degree of redness and swelling and detected thicknesses of paw pads of the mice in the model group as induced by SRBC. The thickness of the right paw was measured as the baseline before the SRBC injection excitation on day 6. At the end of the experiment […], the thickness of the right paw was measured again, and the difference in thickness of the paw before and after the second injection was calculated.
# Statistical processing: experimental data was expressed as mean±standard deviation (Mean±SD). All data was statistically analyzed using a T-test. P<0.05 was considered to be statistically different.
row,Compound,immunosuppressive effect on SRBC-induced delayed type hypersensitivity (right paw thickness)
1,C=C(F)C(=O)N1CCc2c(c(-c3ccnc4[nH]ccc34)nn2C)C1 [YZ001054],significant immunosuppressive effects
2,C=CC(=O)N1Cc2c(-c3ccnc4[nH]ccc34)nn(C(C)C)c2C[C@H]1C [YZ001085],significant immunosuppressive effects
